In PMC12154458, “High-Throughput Screens of Repurposing Hub and DOS Chemical Libraries Reveal Compounds with Novel and Potent Inhibitory Activity Against the Essential Non-Neuronal Acetylcholinesterase of Schistosoma mansoni (SmTAChE)” (International Journal of Molecular Sciences, 2025):
pIC50: −log10 of the molar value. Read-outs that look alike come from different tables or passages of the source.

Key:
rSmTAChE [1] = biological target: T1, rSmTAChE (Schistosoma mansoni, UniProt A0A3Q0KMM5); test: biochemical
rSmTAChE [2] = biological target: T1, rSmTAChE; format: biochemical; settings: for pIC50: read-out: qAC50 (IC50), rSmTAChE
[3] = biological target: recombinant human acetylcholinesterase, rHsAChE (Homo sapiens, UniProt P22303); test: biochemical
[4] = read-out: qAC50 (IC50), rHsAChE
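Throughout, for Inhibition (%) (Average): mostly 20 µM final but a few compounds at 5 or 10 µM.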
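Throughout, for Inhibition (%) Replicate A: mostly 20 µM final but a few compounds at 5 or 10 µM.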
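Throughout, for Inhibition (%) Replicate B: mostly 20 µM final but a few compounds at 5 or 10 µM.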

recombinant human acetylcholinesterase, rHsAChE, sequence (P22303 32-614): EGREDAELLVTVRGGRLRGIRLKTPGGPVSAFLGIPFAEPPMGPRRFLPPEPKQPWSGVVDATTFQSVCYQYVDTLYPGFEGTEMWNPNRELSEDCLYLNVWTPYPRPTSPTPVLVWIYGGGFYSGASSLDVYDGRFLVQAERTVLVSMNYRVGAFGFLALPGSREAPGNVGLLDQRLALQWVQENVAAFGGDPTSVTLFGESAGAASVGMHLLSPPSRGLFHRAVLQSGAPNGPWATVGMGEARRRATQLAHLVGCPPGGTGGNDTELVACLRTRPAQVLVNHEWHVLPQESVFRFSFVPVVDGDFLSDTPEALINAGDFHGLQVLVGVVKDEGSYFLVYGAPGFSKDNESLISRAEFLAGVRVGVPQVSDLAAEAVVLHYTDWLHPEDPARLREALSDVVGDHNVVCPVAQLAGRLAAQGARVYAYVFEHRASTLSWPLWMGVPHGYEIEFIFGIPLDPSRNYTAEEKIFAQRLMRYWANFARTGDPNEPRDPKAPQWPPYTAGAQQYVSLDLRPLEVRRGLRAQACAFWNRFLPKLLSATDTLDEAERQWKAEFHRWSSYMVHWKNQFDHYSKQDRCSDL
T1 sequence (A0A3Q0KMM5 27-661 limits assumed): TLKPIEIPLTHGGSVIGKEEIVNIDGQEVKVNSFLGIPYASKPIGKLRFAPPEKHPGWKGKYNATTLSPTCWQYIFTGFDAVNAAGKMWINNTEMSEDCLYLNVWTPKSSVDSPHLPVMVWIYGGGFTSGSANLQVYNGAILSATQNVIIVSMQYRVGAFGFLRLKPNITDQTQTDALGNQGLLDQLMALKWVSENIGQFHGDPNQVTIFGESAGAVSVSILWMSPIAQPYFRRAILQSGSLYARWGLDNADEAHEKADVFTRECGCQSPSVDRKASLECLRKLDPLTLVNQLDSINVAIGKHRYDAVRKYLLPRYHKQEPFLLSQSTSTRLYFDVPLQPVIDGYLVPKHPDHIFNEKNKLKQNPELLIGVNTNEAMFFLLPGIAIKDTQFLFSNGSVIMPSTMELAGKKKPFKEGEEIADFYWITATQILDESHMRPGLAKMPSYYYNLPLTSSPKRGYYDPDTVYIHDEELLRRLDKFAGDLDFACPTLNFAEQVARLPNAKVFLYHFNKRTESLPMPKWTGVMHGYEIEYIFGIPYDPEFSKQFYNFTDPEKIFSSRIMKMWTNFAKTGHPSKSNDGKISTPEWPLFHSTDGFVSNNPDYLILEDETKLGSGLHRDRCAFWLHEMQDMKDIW

SMILES	Inhibition (%) (Average) (rSmTAChE [1])	Inhibition (%) Replicate A (rSmTAChE [1]) [%]	Inhibition (%) Replicate B (rSmTAChE [1]) [%]	Data Mode (curve class), rSmTAChE (rSmTAChE [2])	Data Mode (curve class), rHsAChE [3]	rSmTAChE Data Mode (rSmTAChE [2])	rHsAChE Data Mode [3]	pIC50 (rSmTAChE [2])	pIC50 [3, 4]	inhibition at 20 µM (rSmTAChE [1]; read-out: rSmTAChE HTS Inhibition (Ave, %)) [%]	SI (Hs/Sm) (rSmTAChE [2])	IC50 ([3]; Table 2, DOS-A library, Inactive = inactive at the maximum tested concentration (40 µM), read-out: IC50 (µM) rHsAChE) [µM]	pIC50 ([3]; Table S4, DOS-A (IC50 values; qAC50), read-out: rHsAChE qAC50)	rHsAChE Data Mode ([3]; dose response curve classification, Table S4, DOS-A)
O=C(NCCCCN1CCN(c2cccc(Cl)c2Cl)CC1)c1ccc2c(c1)Cc1ccccc1-2 [BRD-K05181084-003-04-5]	62.08	63.93	60.23	inactive	inactive									
COc1ccc(NC(=O)Nc2ccc3c(c2)[C@@H]2C[C@H](CC(=O)NCc4ccccc4F)O[C@@H](CO)[C@@H]2O3)cc1 [BRD-K05329107-001-01-3]	62.78	63.88	61.69			inactive	decreasing (weakly active)							
COC(=O)N[C@H](C(=O)N1CC2(CC2)C[C@H]1c1ncc(-c2ccc3c(c2)C(F)(F)c2cc(-c4ccc5nc([C@@H]6[C@H]7CC[C@H](C7)N6C(=O)[C@@H](NC(=O)OC)C(C)C)[nH]c5c4)ccc2-3)[nH]1)C(C)C [BRD-K05446112-001-01-8]	66.27	67.15	65.39	decreasing (weakly active)	inactive			< 4.42						
CCCCc1oc2ccc(NS(C)(=O)=O)cc2c1C(=O)c1ccc(OCCCN(CCCC)CCCC)cc1 [BRD-K05524748-003-04-4]	75.77	74.52	77.02	decreasing (weakly active)	decreasing (weakly active)			< 4.42	< 4.42					
COC(=O)/C=C/c1cccc(N(Cc2ccc(-c3ccc(N(C)C)cc3)cc2)C(=O)C2CCCCC2)c1 [BRD-K08864679-001-02-2]	67.27	71.08	63.46	inactive	inactive									
COc1ccc(C#Cc2ccc3c(c2)O[C@@H](CN(C)S(=O)(=O)c2ccccc2F)[C@@H](C)CN([C@@H](C)CO)S3(=O)=O)cc1 [BRD-K10241968-001-01-1]	63.03	63.23	62.84			inactive	inactive							
Cc1c(C(=O)NN2CCCCC2)nn(-c2ccc(Cl)cc2Cl)c1-c1ccc(Cl)cc1 [BRD-K13296708-001-05-8]	75.13	74.54	75.71	decreasing (weakly active)	inactive			< 4.42						
CC(=O)c1cc([N+](=O)[O-])c(Sc2cccc(Cl)c2Cl)s1 [BRD-K13606314-001-01-3]	73.95	72.57	75.33	inactive	decreasing (weakly active)				< 4.42					
COc1ccc(C#Cc2ccc3c(c2)O[C@H](CN(C)S(=O)(=O)c2ccccc2F)[C@H](C)CN([C@H](C)CO)S3(=O)=O)cc1 [BRD-K13781734-001-02-4]	66.73	61.49	71.97			decreasing (weakly active)	inactive							
COc1ccc(C#Cc2ccc3c(c2)O[C@H](CN(C)S(=O)(=O)c2ccccc2F)[C@@H](C)CN([C@@H](C)CO)S3(=O)=O)cc1 [BRD-K14241686-001-01-8]	69.92	70.53	69.31			decreasing (weakly active)	inactive							
O=C(C[C@@H]1C[C@@H]2c3cc(NC(=O)NC4CCCC4)ccc3O[C@@H]2[C@H](CO)O1)NCc1ccccc1F [BRD-K14652476-001-01-0]	84.81	85.09	84.52			inactive	inactive							
CSc1cc2c(cc1C(F)(F)F)N(C(=O)Nc1cccnc1)CC2 [BRD-K14807180-001-02-5]	86.29	87.94	84.63	inactive	inactive									
Cc1cc(SCc2sc(-c3ccc(C(F)(F)F)cc3)nc2C)ccc1OCC(=O)O [BRD-K14880289-001-03-0]	75.45	71.99	78.91	decreasing	decreasing			4.79	4.98					
COc1ccc(NC(=O)Nc2ccc3c(c2)[C@@H]2C[C@H](CC(=O)NCC4CC4)O[C@@H](CO)[C@@H]2O3)cc1 [BRD-K17285234-001-01-9]	89.37	90.41	88.34			decreasing (weakly active)	inactive							
CCCCc1oc2ccccc2c1C(=O)c1cc(I)c(OCCN(CC)CC)c(I)c1 [BRD-K17561142-003-35-8]	69.46	66.24	72.67	decreasing (weakly active)	decreasing (weakly active)			< 4.42	< 4.42					
C[C@H](NC(=O)C[C@H]1C[C@H]2c3cc(NC(=O)Nc4ccc(C(F)(F)F)cc4)ccc3O[C@H]2[C@H](CO)O1)c1ccccc1 [BRD-K17686770-001-01-8]	68.45	70.27	66.63			decreasing (weakly active)	inactive							
O=C(C[C@H]1C[C@H]2c3cc(NC(=O)Nc4ccc(C(F)(F)F)cc4)ccc3O[C@H]2[C@@H](CO)O1)NC1CCCCC1 [BRD-K18925241-001-01-0]	70.28	62.39	78.17			decreasing (weakly active)	inactive							
CC(C)(C)[S@@+]([O-])N1Cc2cc(C(=O)N3CCCCC3)nc(-c3cccc(-c4ccccc4F)c3)c2[C@H]1CCO [BRD-K19167425-001-01-6]	62.31	62.60	62.02			decreasing (weakly active)	inactive							
CCCC[C@@H](CC)COC(=O)/C=C/c1ccc(OC)cc1 [BRD-K19972289-001-01-4]	64.81	66.96	62.66	inactive	decreasing				4.59					
CC(C)(C#N)c1ccc(N2C(=O)OCc3cnc4ccc(-c5cnc6ccccc6c5)cc4c32)cc1 [BRD-K24556407-001-02-3]	72.65	73.71	71.58	inactive	inactive									
O=C(Nc1ccc(Cl)cc1)Nc1ccc(Cl)c(Cl)c1 [BRD-K25029121-001-05-8]	85.20	84.59	85.82	inactive	decreasing (weakly active)				< 4.42					
CCOc1nc2cccc(C(=O)OCc3oc(=O)oc3C)c2n1Cc1ccc(-c2ccccc2-c2noc(=O)[nH]2)cc1 [BRD-K25723200-001-03-5]	67.00	73.36	60.64	decreasing	decreasing (weakly active)			4.94	< 4.92					
COc1ccc(C(Cl)=C(c2ccc(OC)cc2)c2ccc(OC)cc2)cc1 [BRD-K27062708-001-23-1]	64.11	62.61	65.61	inactive	decreasing (weakly active)				< 4.42					
COc1ccc(NC(=O)Nc2ccc3c(c2)[C@@H]2C[C@H](CC(=O)NCc4ccc5c(c4)OCO5)O[C@@H](CO)[C@@H]2O3)cc1 [BRD-K27599706-001-01-0]	78.59	80.15	77.03			decreasing (weakly active)	decreasing (weakly active)							
COc1ccccc1-c1cccc(-c2nc(C(=O)NCc3ccncc3)cc3c2[C@@H](CCO)N([S@+]([O-])C(C)(C)C)C3)c1 [BRD-K32310489-001-03-4]	64.60	65.31	63.89			decreasing (weakly active)	inactive							
COc1cccc(C#Cc2ccc([C@@H]3[C@@H](C#N)N(C(=O)c4ccccn4)[C@H]3CO)cc2)c1 [BRD-K32986110-001-01-2, (2S,3R,4R)-4-(hydroxymethyl)-3-[4-[2-(3-methoxyphenyl)ethynyl]phenyl]-1-[oxo(2-pyridinyl)methyl]-2-azetidinecarbonitrile]						decreasing				71.4	1.1	31.2	4.51	decreasing
